Measured values from patent US20240066138A1, “ANTIBODY-DRUG CONJUGATES, PHARMACEUTICAL COMPOSITIONS, AND THERAPEUTIC APPLICATIONS” (priority 2020, published 2024).
pIC50: −log10 of the molar value. Where two headings read alike, the source gives them in different places. Numbered stars: 1 amine (or outer) side, 2 acyl side, 3 side chain; on linkers, the order of the positions; unused ones are H or OH. Square brackets hold non-standard residues; d marks the D form. Peptide text beside a SMILES is read from it. * marks the point of attachment. Exatecan = CC[C@@]1(O)C(=O)OCc2c1cc1n(c2=O)Cc2c-1nc1cc(F)c(C)c3c1c2[C@@H](N*)CC3; Hexanoyl(6-maleimido) = O=C1C=CC(=O)N1CCCCCC(=O)*; NHCH2OCH2CO = O=C(COCN[*:1])[*:2]

Experiments:
Assay in all cases: Cell viability assay (CELLCOUNTING-LITE)
Format in all cases: cell-based
KB = test system: KB
Procedure: (§1) Cancerous cells (5,000/well) were seeded in a culture media in a 96-well flat-bottom plate. A compound was prepared by a 3-fold serial dilution and added into each cell solutions. The cells were incubated for 4 or 5 days at 37° C. under 5% CO2. CELLCOUNTING-LITE was added to each well, mixed, and incubated for 10 min at room temperature. The solution in each cell was transferred to a 96-well white opaque plate for reading.

N87 = test system: N87
Procedure: as §1

HT29 = test system: HT29
Procedure: as §1

ASPC-1 = test system: ASPC-1
Procedure: as §1

Skov-3 = test system: Skov-3
Procedure: as §1

RS4; 11 = test system: RS4; 11
Procedure: as §1

Hut78 = test system: Hut78
Procedure: as §1

Raji = test system: Raji
Procedure: as §1

A375 = test system: A375
Procedure: as §1

MCF7 = test system: MCF7
Procedure: as §1

A431 = test system: A431
Procedure: as §1

H322 = test system: H322
Procedure: as §1

Ramos = test system: Ramos
Procedure: as §1

H226 = test system: H226
Procedure: as §1

Jurkat = test system: Jurkat
Procedure: as §1

MV4; 11 = test system: MV4; 11
Procedure: as §1

T47D = test system: T47D
Procedure: as §1

[1] = N87 cells, incubated for 4 or 5 days, Table 1, read-out: IC50

Structure (SMILES)	pIC50 (KB; Homo sapiens, KB)	pIC50 (N87)	pIC50 (HT29; Homo sapiens, HT-29)	pIC50 (ASPC-1; Homo sapiens, ASPC1)	pIC50 (Skov-3; Homo sapiens, SK-OV-3)	pIC50 (RS4; 11; Homo sapiens, RS4-11)	pIC50 (Hut78; Homo sapiens, HuT78)	pIC50 (Raji; Homo sapiens, Raji)	pIC50 (A375; Homo sapiens, A-375)	pIC50 (MCF7; Homo sapiens, MCF7)	pIC50 (A431; Homo sapiens, A-431)	pIC50 (H322; NCI-H322)	pIC50 (Ramos; Homo sapiens, Ramos)	pIC50 (H226; Homo sapiens, NCI-H226)	pIC50 (Jurkat; Homo sapiens, Jurkat)	pIC50 (MV4; 11; Homo sapiens, MV4-11)	pIC50 (T47D; Homo sapiens, T47D)	pIC50 (N87; [1])	also measured
CC[C@@]1(O)C(=O)OCc2c1cc1n(c2=O)Cc2c-1nc1cc(F)c(C)cc1c2C=NOCC(C)CNC(=O)CO (mixture of isomers) [Compound B3, N-(3-((((E/Z)—((S)-4-Ethyl-8-fluoro-4-hydroxy-9-methyl-3,14-dioxo-3,4,12,14-tetrahydro-1H-pyrano[3′,4′:6,7]indolizino[1,2-b]quinolin-11-yl)methylene)amino)oxy)-2-methyl-propyl)-2-hydroxyacetamide]	7.74	8.15	7.89	7.60	8.47	9.14	8.15	9.49	8.23	7.68	8.00	8.41	8.14	6.40	8.92	8.00	8.89	–	–
CC[C@@]1(O)C(=O)OCc2c1cc1n(c2=O)Cc2c-1nc1cc(F)c(C)cc1c2C=NOCCNC(=O)CO [Compound B1, (S,E/Z)—N-(2-((((4-Ethyl-8-fluoro-4-hydroxy-9-methyl-3,14-dioxo-3,4,12,14-tetrahydro-1H-pyrano[3′,4′:6,7]indolizino[1,2-b]quinolin-11-yl)methylene)amino)oxy)ethyl)-2-hydroxyacetamide]	7.51	7.96	7.55	7.27	8.01	8.96	7.96	9.35	8.03	7.72	7.74	7.92	8.11	6.82	8.52	7.74	8.55	–	–
CC[C@@]1(O)C(=O)OCc2c1cc1n(c2=O)Cc2c-1nc1cc(F)c(C)cc1c2C=NOCCCNC(=O)CO [Compound B2, (S,E/Z)—N-(3-((((4-ethyl-8-fluoro-4-hydroxy-9-methyl-3,14-dioxo-3,4,12,14-tetrahydro-1H-pyrano[3′,4′:6,7]indolizino[1,2-b]quinolin-11-yl)methylene)amino)oxy)propyl)-2-hydroxyacetamide]	–	–	–	–	–	–	–	–	–	–	–	–	–	–	–	–	–	8.04	pIC50 (KB; Homo sapiens, KB cells, incubated for 4 or 5 days, Table 1, read-out: IC50): 7.72; pIC50 (HT29; Homo sapiens, HT-29, HT29 cells, incubated for 4 or 5 days, Table 1, read-out: IC50): 7.80; pIC50 (ASPC-1; Homo sapiens, ASPC1, ASPC-1 cells, incubated for 4 or 5 days, Table 1, read-out: IC50): 7.40; pIC50 (Skov-3; Homo sapiens, SK-OV-3, Skov-3 cells, incubated for 4 or 5 days, Table 1, read-out: IC50): 7.96; pIC50 (RS4; 11; Homo sapiens, RS4, 11 cells, incubated for 4 or 5 days, Table 1, read-out: IC50): 9.06; pIC50 (Hut78; Homo sapiens, Hut78 cells, incubated for 4 or 5 days, Table 1, read-out: IC50): 8.04; pIC50 (Raji; Homo sapiens, Raji cells, incubated for 4 or 5 days, Table 1, read-out: IC50): 9.24; pIC50 (A375; Homo sapiens, A-375, A375 cells, incubated for 4 or 5 days, Table 1, read-out: IC50): 8.16; pIC50 (MCF7; Homo sapiens, MCF7 cells, incubated for 4 or 5 days, Table 1, read-out: IC50): 8.04; pIC50 (A431; Homo sapiens, A-431, A431 cells, incubated for 4 or 5 days, Table 1, read-out: IC50): 8.01; pIC50 (H322; NCI-H322, H322 cells, incubated for 4 or 5 days, Table 1, read-out: IC50): 7.92; pIC50 (Ramos; Homo sapiens, Ramos cells, incubated for 4 or 5 days, Table 1, read-out: IC50): 8.18; pIC50 (H226; Homo sapiens, NCI-H226, H226 cells, incubated for 4 or 5 days, Table 1, read-out: IC50): 6.95; pIC50 (Jurkat; Homo sapiens, Jurkat cells, incubated for 4 or 5 days, Table 1, read-out: IC50): 8.68; pIC50 (MV4; 11; Homo sapiens, MV4, 11 cells, incubated for 4 or 5 days, Table 1, read-out: IC50): 7.85; pIC50 (T47D; Homo sapiens, T47D cells, incubated for 4 or 5 days, Table 1, read-out: IC50): 8.62
CC[C@@]1(O)C(=O)OCc2c1cc1n(c2=O)Cc2c-1nc1cc(F)c(C)c3c1c2[C@@H](NC(=O)COCNC(=O)CNC(=O)[C@H](Cc1ccccc1)NC(=O)CNC(=O)CNC(=O)CCCCCN1C(=O)C=CC1=O)CC3 [Deruxtecan, reference compound] ({Hexanoyl(6-maleimido)}-GGFG[NHCH2OCH2CO]-Exatecan)	–	–	–	–	–	–	–	–	–	–	–	–	–	–	–	–	–	8.00	pIC50 (KB; KB cells, incubated for 4 or 5 days, Table 1, read-out: IC50): 8.14; pIC50 (HT29; HT29 cells, incubated for 4 or 5 days, Table 1, read-out: IC50): 7.89; pIC50 (ASPC-1; ASPC-1 cells, incubated for 4 or 5 days, Table 1, read-out: IC50): 7.54; pIC50 (Skov-3; Skov-3 cells, incubated for 4 or 5 days, Table 1, read-out: IC50): 8.01; pIC50 (RS4; 11; RS4, 11 cells, incubated for 4 or 5 days, Table 1, read-out: IC50): 9.19; pIC50 (Hut78; Hut78 cells, incubated for 4 or 5 days, Table 1, read-out: IC50): 8.00; pIC50 (Raji; Raji cells, incubated for 4 or 5 days, Table 1, read-out: IC50): 9.38; pIC50 (A375; A375 cells, incubated for 4 or 5 days, Table 1, read-out: IC50): 8.44; pIC50 (MCF7; MCF7 cells, incubated for 4 or 5 days, Table 1, read-out: IC50): 8.24; pIC50 (A431; A431 cells, incubated for 4 or 5 days, Table 1, read-out: IC50): 8.11; pIC50 (H322; H322 cells, incubated for 4 or 5 days, Table 1, read-out: IC50): 8.09; pIC50 (Ramos; Ramos cells, incubated for 4 or 5 days, Table 1, read-out: IC50): 8.42; pIC50 (H226; H226 cells, incubated for 4 or 5 days, Table 1, read-out: IC50): 6.41; pIC50 (Jurkat; Jurkat cells, incubated for 4 or 5 days, Table 1, read-out: IC50): 8.64; pIC50 (MV4; 11; MV4, 11 cells, incubated for 4 or 5 days, Table 1, read-out: IC50): 8.16; pIC50 (T47D; T47D cells, incubated for 4 or 5 days, Table 1, read-out: IC50): 8.72
